From patent publication US20130171162A1, “COMPOSITIONS AND METHODS FOR THE PREVENTION OF OXIDATIVE DEGRADATION OF PROTEINS” (priority 2008, published 2013)
“Also recorded” adds a separate entry of the source. Where two headings read alike, the source gives them in different places.

Experiments:
PTH [1] = test: Screening stabilizers for PTH oxidized by AAPH, H2O2 plus Fe(II), H2O2; rp-HPLC; type: physicochemical
PTH [2] = details: AAPH, FIG. 11
PTH [3] = test: Screening stabilizers for PTH oxidized by AAPH, H2O2 plus Fe(II), H2O2; rp-HPLC; type: physicochemical; details: for protection of Trp residue in PTH: stress AAPH 1 mM, stabilizer 2 mg/mL; for protection of Trp residue in PTH / protection of PTH against oxidation: 40° C., 6 hours; for protection of PTH against oxidation: stress AAPH
Description: The protein solution was subsequently stressed by the addition of 1 mM of AAPH, and incubated at 40° C. for 6 hours.
The experiments were carried on a Waters HPLC instrument using a C4 (Vydac, 214TP, 5μ, 2.1×250 mm). The solvent A was 0.1% trifluoracetic acid (TFA) in H2O and the solvent B was 0.08% TFA in acetonitrile. The samples were analyzed with a linear gradient from 20% B to 80% B at a flow rate of 0.2 mL/min in 45 min. The column temperature was set at 30° C.

anti-VEGF antibody = details: for protection of anti-VEGF antibody against oxidation (basic peaks in IEC): AAPH, free Trp 2 or 10 mg/mL
[4] = Anti-VEGF antibody oxidation, IEC chromatogram; details: for oxidation / oxidative species in basic region of IEC: H2O2
[5] = stress H2O2 plus Fe(II) (Fenton reaction), 40° C., 6 hours

N[C@@H](Cc1c[nH]c2ccccc12)C(=O)O [free tryptophan, L-Tryptophan]
Met[O]-PTH peaks (PTH [1]; free Trp 2 mg/mL, Fenton reaction): much less so | protection of Trp residue in PTH (PTH [1]; stress Fenton reaction, stabilizer 2 mg/mL, 40° C., 6 hours): good protection | protection of PTH against oxidation (PTH [1]; stress H2O2, 40° C., 6 hours): no protection | Trp oxidation of PTH, relative quantification by EIC (PTH [2]): suppressed the Trp oxidation significantly | Met[O]-PTH peaks (PTH [3]; free Trp 2 mg/mL, AAPH stress): prominent | protection of Trp residue in PTH (PTH [3]): good protection | protection of PTH against oxidation (PTH [3]): effective only against the oxidation by AAPH | protection of anti-VEGF antibody against oxidation (basic peaks in IEC) (anti-VEGF antibody): excellent protection | protection of anti-VEGF antibody against oxidation (basic peaks in IEC) (anti-VEGF antibody; listed as Free Trp): effective in mitigating oxidation | protection of anti-VEGF antibody against oxidation (basic peaks in IEC) (anti-VEGF antibody; listed as free Trp): dropped to the baseline | protection of anti-VEGF antibody against oxidation (basic peaks in IEC) (anti-VEGF antibody; listed as tryptophan): effectively blocked the oxidative reaction

Cc1ncc(CO)c(CO)c1O [pyridoxine]
protection of Trp residue in PTH (PTH [3]): excellent protection

OC[C@H]1O[C@@](CO)(O[C@H]2O[C@H](CO)[C@@H](O)[C@H](O)[C@H]2O)[C@@H](O)[C@@H]1O [Sucrose, sucrose]
protection of PTH against oxidation (PTH [1]; [5]): less effective than mannitol

anti-VEGF antibody: humanized anti-VEGF antibody fragment, indicated for the treatment of neovascular (wet) age-related macular degeneration
oxidation / peaks in basic region of IEC ([4]; AAPH): produced additional peaks in the basic region of IEC chromatogram | oxidation / oxidative species in basic region of IEC [4]: did not cause the anti-VEGF antibody oxidation | oxidation / oxidative species in basic region of IEC ([4]; listed as anti-VEGF): no oxidative species in basic region

OC[C@@H](O)[C@@H](O)[C@H](O)[C@H](O)CO [mannitol, Mannitol]
protection of PTH against oxidation (PTH [1]; stress H2O2, 40° C., 6 hours): not protected by mannitol at all | protection of PTH against oxidation (PTH [1]; [5]): effective; also recorded: complete protection | protection of PTH against oxidation (PTH [3]): not protected by mannitol at all

O=C([O-])CN(CCN(CC(=O)[O-])CC(=O)O)CC(=O)O.[Na+].[Na+] [EDTA, EDTA disodium]
effect on Trp 50 oxidation of anti-VEGF antibody (anti-VEGF antibody; EDTA added as stabilizer): inhibited; also recorded: improved stability

CSCC[C@H](N)C(=O)O [free methionine, L-Methionine]
effect on the oxidation of Trp in PTH (Trp[O] peak) (PTH [1]; free Met 2 mg/mL, FIG. 6): no effect | oxidation of Met residues in PTH (Met[O]-PTH peaks) (PTH [1]; free Met 2 mg/mL, FIG. 6): significantly reduced | protection of PTH against oxidation (PTH [1]; stress H2O2, 40° C., 6 hours): protected | protection of PTH against oxidation (PTH [1]; stress H2O2, 40° C., 6 hours, listed as Free Met): neutralized the effect of the oxidants H2O2 | protection of PTH against oxidation (PTH [1]; [5]): protected | protection of PTH against oxidation (PTH [1]; stress H2O2 plus Fe(II) (Fenton reaction), 40° C., 6 hours, listed as Free Met): neutralized the effect of the oxidants H2O2 | Met oxidation of PTH, relative quantification by EIC (PTH [2]): suppressed the Met oxidation significantly

Cc1c(C)c2c(c(C)c1O)CCC(C)(C(=O)O)O2 (stereo not shown) [trolox, 6-hydroxy-2,5,7,8-tetramethylchroman-2-carboxylic acid]
protection of Trp residue in PTH (PTH [3]): excellent protection
